# Assay results as given in paper PMC8510480, “Searching Anti-Zika Virus Activity in 1H-1,2,3-Triazole Based Compounds” (Molecules, 2021).
# pIC50: −log10 of the molar value. Read-outs that look alike come from different tables or passages of the source.
# Key:
# [1] = system: ZIKV; assay: Pre-treatment test to ZIKV in Vero cells; type: cell-based, Zika virus; conditions: 1 h pre-treatment at 136.90, 68.45, 34.22 and 17.11 µM, then ZIKV MOI 0.1, 5 days
# Protocol: Since compound 4b was the only one in the series with activity against ZIKV, further experiments were conducted to elucidate its mechanism of action in cells that were pre-treated. To this, cells were pre-treated with varying concentrations of compound 4b, washed, and then infected with ZIKV. The concentrations used were chosen with the aim to preserve cellular viability and, thus, the maximum concentration was the previously determined CC20 value (136.90, 68.45, 34.22 and 17.11 µM).
# Figure 5 Graphic result for compound 4b in the pre-treatment test to ZIKV. Vero cells in a 48-well cell plate were treated with 4b in different concentrations and after 1 h the supernatant was discarded. Cells were washed with PBS 1X, ZIKV MOI 0.1 was inoculated, and the plate was incubated again. After five days, the supernatant was collected and titrated by TCID50 method. The experiment was conducted in triplicates and values are the mean and the SD. […]
# 96-well plates with 1 × 10^4 cell/well were used in this assay and prepared 24 h previously. […] The reading was performed in an inverted optical microscope AE2000, Motic (Motic, Kowloon Bay, Hong Kong) counting positives wells by the presence of cytopathic effect and the determination of the sample title was performed with the aid of the Microsoft Office Excel program (Microsoft® Office, Redmond, WA, USA). […]
# [2] = system: ZIKV; assay: Post-infection test with ZIKV in Vero cells; type: cell-based, Zika virus; conditions: for inhibition at 136.9 µM: CC20 (4b 136.90 µM; 6MMPr 60.50 µM); for inhibition at 136.9 µM / inhibition at 68.45 µM / inhibition at 34.23 µM / inhibition at 17.11 µM: read-out: % Viral Inhibition; for inhibition at 68.45 µM: CC20/2 (4b 68.45 µM; 6MMPr 30.25 µM); for inhibition at 34.23 µM: CC20/4 (4b 34.23 µM; 6MMPr 15.13 µM); for inhibition at 17.11 µM: CC20/8 (4b 17.11 µM; 6MMPr 7.6 µM)
# Protocol: We then investigated the activity of compound 4b after ZIKV infection in cells. As already noted in the screening test, 4b reduced ZIKV growth to levels similar to 6MMPr, a positive control previously described by our group. As in the pre-treatment test, four different concentrations were used, with the maximum being CC20 (136.90, 68.45, 34.22 and 17.11 µM). […] It is worth highlighting the constant decrease in the viral titer, even in lower concentrations, while the positive control 6MMPr reduces it only in the highest concentrations.
# Statistical analysis compared the concentrations of each compound at each collection time (3 d.p.i. and 5 d.p.i.) with a t-test.
# Figure 6 Comparison of anti-ZIKV activity between 6MMPr and 4b after three- and five-days post-infection (d.p.i.). 6MMPr and compound 4b were submitted to a post-infection test when Vero cells was infected with ZIKV at MOI 0.1 for 2 h then treated with compounds. Concentrations used in the test corresponded to CC20 (4b = 136.90 µM; 6MMPr = 60.50 µM), CC20/2 (4b = 68.45 µM; 6MMPr = 30.25 µM), CC20/4 (4b = 34.22 µM; 6MMPr = 15.13 µM) and CC20/8 (4b = 17.11 µM; 6MMPr = 7.56 µM). The experiment was done in triplicates and values are the mean and the SD. Statistical analysis was made between compounds using t-test on GraphPad Prism program. * = significative; ns = not statistically significant for p < 0.05. (a) 3 d.p.i. from both compounds. (b) 5 d.p.i. from both compounds.
# 96-well plates with 1 × 10^4 cell/well were used in this assay and prepared 24 h previously. Seven serial dilutions of the virus were prepared in DMEM + 2% FBS culture medium. After removing the culture medium from the plate, 50 µL of each dilution was added to the wells in several repetitions. The plate was incubated at 37 °C and 5% atm CO2 for 1 h. After this interval, each well of the plate received an additional 100 µL of DMEM + 2% FBS culture medium. The plate was incubated again, in the same parameters, for 5 days. Some columns of the plate were selected for use as a cell control (culture medium only, no virus). The reading was performed in an inverted optical microscope AE2000, Motic (Motic, Kowloon Bay, Hong Kong) counting positives wells by the presence of cytopathic effect and the determination of the sample title was performed with the aid of the Microsoft Office Excel program (Microsoft® Office, Redmond, WA, USA).
# 48-well plates with 2.5 × 10^4 cells/well were prepared 24 h previously. A ZIKV solution at MOI 0.1 was inoculated into the wells and the cells incubated at 37 °C and 5% CO2 atmosphere. After 2 h, the culture medium was removed, and the wells were washed with 1X PBS. 2:1 dilution of 4b (136.90 µM, 68.45 µM, 34.22 µM and 17.11 µM) and 6MMPr (60.50 µM, 30.25 µM, 15.13 µM and 7.56 µM) were added in triplicate. The cells were again incubated for 72 h and 120 h. The supernatants from the wells were collected and titrated.
structure (smiles),measurement,setting,value
O=C1C(Br)=C(NCc2cn(CN3C(=O)c4ccccc4C3=O)nn2)C(=O)c2ccccc21 [Compound 4b],change in virus titers vs negative control,[1],no significant change in virus titers
same,inhibition at 136.9 µM,"[2]; Zika virus, 72 h, 3 d.p.i.",94.9%
same,inhibition at 68.45 µM,"[2]; Zika virus, 72 h, 3 d.p.i.",85.6%
same,inhibition at 34.23 µM,"[2]; Zika virus, 72 h, 3 d.p.i.",85.8%
same,inhibition at 17.11 µM,"[2]; Zika virus, 72 h, 3 d.p.i., negative = increased virus titer compared to control",88.8%
same,inhibition at 136.9 µM,"[2]; Zika virus, 120 h, 5 d.p.i.",97.5%
same,inhibition at 68.45 µM,"[2]; Zika virus, 120 h, 5 d.p.i.",93.7%
same,inhibition at 34.23 µM,"[2]; Zika virus, 120 h, 5 d.p.i.",90.8%
same,inhibition at 17.11 µM,"[2]; Zika virus, 120 h, 5 d.p.i.",96.8%
same,pIC50,"[2]; Zika virus, Vero, read-out: IC50 (50% inhibition concentration, virus replication)",3.84
same,% Viral Inhibition,"[2]; post-infection test, Table 4, concentration and time not stated",91.1%
same,effect on growth of the virus (viral titer),"[2]; post-infection, four concentrations from CC20 to CC20/8, 3 and 5 d.p.i.",inhibits the growth of the virus at all concentrations used
same,SI (selectivity index),[2]; ratio between the CC50 and IC50 values,2.3
